{"source": "paper PMC11784639", "about": "“Archaeal Signalling Networks—New Insights Into the Structure and Function of Histidine Kinases and Response Regulators of the Methanogenic Archaeon Methanosarcina acetivorans” (Environmental Microbiology, 2025)", "key": {"[1]": {"target": "T1, MA2013 (Methanosarcina acetivorans, UniProt Q8TPA1)", "T1 construct": "gene MA_2013", "T1 sequence (Q8TPA1 1-1000)": "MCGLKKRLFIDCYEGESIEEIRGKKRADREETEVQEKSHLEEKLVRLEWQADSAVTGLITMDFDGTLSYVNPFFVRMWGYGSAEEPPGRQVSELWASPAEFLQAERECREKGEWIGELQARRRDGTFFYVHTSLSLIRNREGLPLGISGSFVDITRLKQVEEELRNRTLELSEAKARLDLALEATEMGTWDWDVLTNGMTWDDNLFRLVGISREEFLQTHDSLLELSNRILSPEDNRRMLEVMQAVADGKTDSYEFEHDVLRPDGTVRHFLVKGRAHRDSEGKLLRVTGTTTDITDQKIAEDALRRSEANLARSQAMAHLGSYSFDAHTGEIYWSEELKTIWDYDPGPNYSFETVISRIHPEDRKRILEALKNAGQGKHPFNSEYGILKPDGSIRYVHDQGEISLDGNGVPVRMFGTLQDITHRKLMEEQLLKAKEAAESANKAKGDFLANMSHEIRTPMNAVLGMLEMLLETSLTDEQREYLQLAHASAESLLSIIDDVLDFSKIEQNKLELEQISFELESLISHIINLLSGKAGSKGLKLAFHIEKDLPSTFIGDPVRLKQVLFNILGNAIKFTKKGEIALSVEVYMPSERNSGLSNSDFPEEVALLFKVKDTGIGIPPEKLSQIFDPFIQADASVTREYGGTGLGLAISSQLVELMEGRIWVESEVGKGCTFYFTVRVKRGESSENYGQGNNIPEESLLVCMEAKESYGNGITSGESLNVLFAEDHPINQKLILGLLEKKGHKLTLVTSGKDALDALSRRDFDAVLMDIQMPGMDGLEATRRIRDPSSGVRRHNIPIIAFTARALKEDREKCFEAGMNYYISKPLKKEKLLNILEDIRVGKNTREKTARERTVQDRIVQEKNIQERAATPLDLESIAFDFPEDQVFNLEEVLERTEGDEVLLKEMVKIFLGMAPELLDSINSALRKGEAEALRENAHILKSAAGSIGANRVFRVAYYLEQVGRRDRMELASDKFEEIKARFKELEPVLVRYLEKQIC", "experiment": "fluorescence titration with TNP-ATP", "assay_type": "binding", "conditions": "fluorescent ATP analogue; kinase buffer pH 8, 5 mM MgCl2; 541 nm emission"}, "[2]": {"target": "T2, PKR1R2 (Methanosarcina acetivorans, UniProt Q8THY1)", "T2 construct": "gene MA_4377; cytosolic truncation PAS-HK-R1-R2 without CHASE4 and HAMP (membrane) part", "T2 sequence (Q8THY1 351-1028 limits assumed)": "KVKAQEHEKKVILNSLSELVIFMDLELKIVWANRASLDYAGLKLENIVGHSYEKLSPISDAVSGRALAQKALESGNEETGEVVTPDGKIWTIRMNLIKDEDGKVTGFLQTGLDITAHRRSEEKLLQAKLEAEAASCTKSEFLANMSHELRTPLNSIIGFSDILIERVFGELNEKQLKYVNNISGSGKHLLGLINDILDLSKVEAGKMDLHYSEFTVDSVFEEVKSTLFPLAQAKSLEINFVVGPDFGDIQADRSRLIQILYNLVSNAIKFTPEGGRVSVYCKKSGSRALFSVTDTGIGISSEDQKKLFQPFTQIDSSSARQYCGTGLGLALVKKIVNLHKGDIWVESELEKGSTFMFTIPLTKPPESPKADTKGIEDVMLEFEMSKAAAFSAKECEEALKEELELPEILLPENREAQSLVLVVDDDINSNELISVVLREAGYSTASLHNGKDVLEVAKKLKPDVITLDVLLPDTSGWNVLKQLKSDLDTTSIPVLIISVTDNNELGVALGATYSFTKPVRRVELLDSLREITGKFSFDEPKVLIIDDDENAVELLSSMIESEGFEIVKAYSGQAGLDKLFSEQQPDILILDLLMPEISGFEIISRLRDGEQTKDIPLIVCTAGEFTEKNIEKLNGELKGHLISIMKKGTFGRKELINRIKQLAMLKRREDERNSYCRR", "experiment": "fluorescence titration with TNP-ATP", "assay_type": "binding", "conditions": "fluorescent ATP analogue; kinase buffer pH 8, 5 mM MgCl2; 541 nm emission"}, "[3]": {"target": "T3, MA2082 (Methanosarcina acetivorans, UniProt Q8TP40)", "T3 construct": "gene MA_2082", "T3 sequence (Q8TP40 1-698)": "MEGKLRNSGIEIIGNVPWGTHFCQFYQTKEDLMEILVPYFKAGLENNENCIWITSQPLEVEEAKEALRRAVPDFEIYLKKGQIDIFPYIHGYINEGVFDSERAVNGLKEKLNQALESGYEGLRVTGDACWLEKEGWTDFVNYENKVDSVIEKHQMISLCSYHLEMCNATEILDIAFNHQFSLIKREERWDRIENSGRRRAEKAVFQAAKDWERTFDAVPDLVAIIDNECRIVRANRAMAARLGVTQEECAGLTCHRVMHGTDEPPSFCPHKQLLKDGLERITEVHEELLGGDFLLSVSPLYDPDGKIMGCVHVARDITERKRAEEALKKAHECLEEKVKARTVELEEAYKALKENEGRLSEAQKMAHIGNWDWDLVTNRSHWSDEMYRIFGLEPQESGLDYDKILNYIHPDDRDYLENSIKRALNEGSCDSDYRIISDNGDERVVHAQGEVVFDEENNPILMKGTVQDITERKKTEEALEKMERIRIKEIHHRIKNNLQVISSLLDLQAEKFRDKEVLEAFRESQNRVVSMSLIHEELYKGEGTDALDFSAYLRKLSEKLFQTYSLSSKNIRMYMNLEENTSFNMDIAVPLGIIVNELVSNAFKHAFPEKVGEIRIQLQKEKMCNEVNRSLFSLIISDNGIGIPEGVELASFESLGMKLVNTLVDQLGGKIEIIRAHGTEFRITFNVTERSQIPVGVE", "experiment": "fluorescence titration with TNP-ATP", "assay_type": "binding", "conditions": "fluorescent ATP analogue; kinase buffer pH 8, 5 mM MgCl2; 541 nm emission"}, "[4]": {"target": "T4, RdmS (MA0863) (Methanosarcina acetivorans, UniProt Q8TSD5)", "T4 construct": "gene MA_0863", "T4 sequence (Q8TSD5 1-749)": "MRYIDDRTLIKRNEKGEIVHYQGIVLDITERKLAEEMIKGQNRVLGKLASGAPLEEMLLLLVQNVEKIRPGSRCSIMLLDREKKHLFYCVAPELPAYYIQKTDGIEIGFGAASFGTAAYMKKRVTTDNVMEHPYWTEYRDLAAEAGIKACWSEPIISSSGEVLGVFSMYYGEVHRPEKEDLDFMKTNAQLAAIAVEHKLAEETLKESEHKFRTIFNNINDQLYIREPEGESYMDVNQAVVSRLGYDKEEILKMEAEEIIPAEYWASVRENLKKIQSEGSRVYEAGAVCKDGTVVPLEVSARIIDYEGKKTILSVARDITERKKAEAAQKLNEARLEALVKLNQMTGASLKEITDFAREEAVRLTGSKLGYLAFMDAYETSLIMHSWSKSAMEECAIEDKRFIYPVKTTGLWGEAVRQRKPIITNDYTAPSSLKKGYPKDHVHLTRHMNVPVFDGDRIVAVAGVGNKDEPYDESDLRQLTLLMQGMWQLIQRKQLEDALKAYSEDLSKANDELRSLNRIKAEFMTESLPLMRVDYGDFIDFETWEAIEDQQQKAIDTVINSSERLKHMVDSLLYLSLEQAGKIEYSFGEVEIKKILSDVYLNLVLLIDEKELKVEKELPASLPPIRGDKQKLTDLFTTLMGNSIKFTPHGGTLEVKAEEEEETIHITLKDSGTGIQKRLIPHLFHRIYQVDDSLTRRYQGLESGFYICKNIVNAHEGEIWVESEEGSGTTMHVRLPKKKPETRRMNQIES", "experiment": "fluorescence titration with TNP-ATP", "assay_type": "binding", "conditions": "fluorescent ATP analogue; kinase buffer pH 8, 5 mM MgCl2; 541 nm emission"}, "[5]": {"target": "T5, MA4377 (full-length) (Methanosarcina acetivorans, UniProt Q8THY1)", "T5 construct": "gene MA_4377", "T5 sequence (Q8THY1 1-1028)": "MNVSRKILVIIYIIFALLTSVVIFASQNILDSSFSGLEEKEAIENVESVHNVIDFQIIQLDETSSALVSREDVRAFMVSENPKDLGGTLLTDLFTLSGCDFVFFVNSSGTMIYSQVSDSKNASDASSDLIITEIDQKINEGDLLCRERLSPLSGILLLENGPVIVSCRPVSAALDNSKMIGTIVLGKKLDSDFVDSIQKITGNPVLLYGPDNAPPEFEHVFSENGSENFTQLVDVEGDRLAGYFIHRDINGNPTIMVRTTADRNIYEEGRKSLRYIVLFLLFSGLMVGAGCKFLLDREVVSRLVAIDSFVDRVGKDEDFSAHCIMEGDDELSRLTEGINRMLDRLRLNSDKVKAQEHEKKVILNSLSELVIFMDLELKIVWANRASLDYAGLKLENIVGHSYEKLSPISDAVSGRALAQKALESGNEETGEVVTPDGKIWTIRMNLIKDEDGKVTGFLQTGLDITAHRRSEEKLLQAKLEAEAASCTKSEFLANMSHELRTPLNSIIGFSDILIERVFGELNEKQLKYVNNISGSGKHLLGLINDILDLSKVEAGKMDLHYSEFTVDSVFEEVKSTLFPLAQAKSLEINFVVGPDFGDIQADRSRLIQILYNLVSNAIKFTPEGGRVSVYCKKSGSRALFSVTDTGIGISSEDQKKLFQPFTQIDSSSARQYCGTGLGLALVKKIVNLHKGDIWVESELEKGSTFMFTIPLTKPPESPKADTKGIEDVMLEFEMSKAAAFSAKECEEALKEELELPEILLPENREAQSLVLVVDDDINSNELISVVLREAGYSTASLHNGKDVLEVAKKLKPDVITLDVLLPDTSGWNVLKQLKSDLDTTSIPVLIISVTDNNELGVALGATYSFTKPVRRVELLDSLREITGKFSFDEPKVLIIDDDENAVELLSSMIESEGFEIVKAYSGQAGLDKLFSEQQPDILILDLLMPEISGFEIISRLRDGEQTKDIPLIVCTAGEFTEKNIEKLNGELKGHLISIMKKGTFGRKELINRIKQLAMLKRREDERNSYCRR", "experiment": "fluorescence titration with TNP-ATP", "assay_type": "binding", "conditions": "fluorescent ATP analogue; kinase buffer pH 8, 5 mM MgCl2; 541 nm emission"}, "[6]": {"target": "T6, PK (Methanosarcina acetivorans, UniProt Q8THY1)", "T6 construct": "gene MA_4377; PAS and HK domains only (no CHASE4, HAMP, R1, R2)", "T6 sequence (Q8THY1 351-765 limits assumed)": "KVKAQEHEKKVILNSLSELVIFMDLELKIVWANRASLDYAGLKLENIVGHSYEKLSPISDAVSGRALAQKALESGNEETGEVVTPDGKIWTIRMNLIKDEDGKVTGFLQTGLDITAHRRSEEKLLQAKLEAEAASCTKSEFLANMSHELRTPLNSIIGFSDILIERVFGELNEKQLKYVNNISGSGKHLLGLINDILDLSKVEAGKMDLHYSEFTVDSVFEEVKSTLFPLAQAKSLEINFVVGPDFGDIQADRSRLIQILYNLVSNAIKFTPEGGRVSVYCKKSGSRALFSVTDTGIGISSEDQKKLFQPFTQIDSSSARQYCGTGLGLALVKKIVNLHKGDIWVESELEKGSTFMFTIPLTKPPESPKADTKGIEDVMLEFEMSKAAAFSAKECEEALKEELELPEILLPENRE", "experiment": "autophosphorylation, SDS-PAGE autoradiography", "assay_type": "biochemical", "conditions": "labelled compound ([γ-32P]ATP 3.3 μM) with 200 μM ATP; 10 μM kinase; kinase buffer pH 8, 5 mM MgCl2"}}, "data": [{"compound": "2′‐(3′)‐O‐(2,4,6‐trinitrophenyl)‐adenosin 5′‐triphosphat [TNP-ATP]", "values": [{"measurement": "Kd", "setting": "[1]", "result": "28.2 ± 1.3", "unit": "µM"}, {"measurement": "Kd", "setting": "[2]", "result": "~11", "unit": "µM"}, {"measurement": "Kd", "setting": "[3]", "result": "29.6 ± 4.4", "unit": "µM"}, {"measurement": "Kd", "setting": "[4]", "result": "17 ± 5.7", "unit": "µM"}, {"measurement": "Kd", "setting": "[5]", "result": "~11", "unit": "µM"}]}, {"compound": "Nc1ncnc2c1ncn2[C@@H]1O[C@H](COP(=O)(O)OP(=O)(O)OP(=O)(O)O)[C@@H](O)[C@H]1O", "note": "[ATP]", "values": [{"measurement": "autophosphorylation, SDS-PAGE autoradiography", "setting": "[6]", "result": "indeed displayed time‐dependent autokinase activity"}]}]}
